Measured values reported in ChEMBL document CHEMBL1157712, “Hit to lead account of the discovery of bisbenzamide and related ureidobenzamide inhibitors of Rho kinase” (J Med Chem, 2010).
Values after ≈ are worked out from the molar mass of the structure shown. One block for each compound: values may come before it.

Columns and labels:
[1] = target: Protein kinase C alpha type (Homo sapiens) (UniProt P17252); assay: Inhibition of PKCalpha; conditions: values are per cent of control
[2] = target: Myosin light chain kinase, smooth muscle (Homo sapiens) (UniProt Q15746); assay: Inhibition of SMMLCK at 3 uM relative to control; values are per cent of control
[3] = target: RAC-beta serine/threonine-protein kinase (Homo sapiens) (UniProt P31751); assay: Inhibition of PKBbeta at 3 uM relative to control; values are per cent of control
Sequence of RAC-beta serine/threonine-protein kinase (Homo sapiens) (P31751 whole entry): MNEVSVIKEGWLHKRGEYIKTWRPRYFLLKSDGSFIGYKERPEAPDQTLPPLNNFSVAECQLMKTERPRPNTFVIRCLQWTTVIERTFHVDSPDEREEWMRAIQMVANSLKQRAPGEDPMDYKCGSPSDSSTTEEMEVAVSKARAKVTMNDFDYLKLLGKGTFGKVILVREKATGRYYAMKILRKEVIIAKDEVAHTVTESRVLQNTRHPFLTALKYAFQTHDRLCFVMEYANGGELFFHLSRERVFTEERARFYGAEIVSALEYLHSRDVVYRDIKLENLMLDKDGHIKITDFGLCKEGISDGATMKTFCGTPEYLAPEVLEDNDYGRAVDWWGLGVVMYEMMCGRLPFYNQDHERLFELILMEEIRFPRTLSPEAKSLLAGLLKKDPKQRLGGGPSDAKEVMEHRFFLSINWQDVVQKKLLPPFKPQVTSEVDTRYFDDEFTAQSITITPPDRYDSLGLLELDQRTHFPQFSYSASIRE

[4] = target: Ribosomal protein S6 kinase alpha-3 (Homo sapiens) (UniProt P51812); assay: Inhibition of MAPKAPK1b at 3 uM relative to control; values are per cent of control
[5] = test system: ROCK1 (Homo sapiens); assay: Inhibition of ROCK1
[6] = Inhibition of AMPK at 3 uM relative to control; values are per cent of control
[7] = target: Eukaryotic elongation factor 2 kinase (Homo sapiens) (UniProt O00418); assay: Inhibition of EF2K at 3 uM relative to control; values are per cent of control
[8] = target: MAP kinase-activated protein kinase 5 (Homo sapiens) (UniProt Q8IW41); assay: Inhibition of PRAK at 3 uM relative to control; values are per cent of control
[9] = target: MAP kinase-activated protein kinase 2 (Homo sapiens) (UniProt P49137); assay: Inhibition of MAPKAPK2 at 3 uM relative to control; values are per cent of control
[10] = target: Ribosomal protein S6 kinase alpha-1 (Homo sapiens) (UniProt Q15418); assay: Inhibition of MAPKAPK1A at 3 uM relative to control; values are per cent of control
[11] = target: Mitogen-activated protein kinase 8 (Homo sapiens) (UniProt P45983); assay: Inhibition of JNK1a1 at 3 uM relative to control; values are per cent of control
Sequence of Mitogen-activated protein kinase 8 (Homo sapiens) (P45983 whole entry): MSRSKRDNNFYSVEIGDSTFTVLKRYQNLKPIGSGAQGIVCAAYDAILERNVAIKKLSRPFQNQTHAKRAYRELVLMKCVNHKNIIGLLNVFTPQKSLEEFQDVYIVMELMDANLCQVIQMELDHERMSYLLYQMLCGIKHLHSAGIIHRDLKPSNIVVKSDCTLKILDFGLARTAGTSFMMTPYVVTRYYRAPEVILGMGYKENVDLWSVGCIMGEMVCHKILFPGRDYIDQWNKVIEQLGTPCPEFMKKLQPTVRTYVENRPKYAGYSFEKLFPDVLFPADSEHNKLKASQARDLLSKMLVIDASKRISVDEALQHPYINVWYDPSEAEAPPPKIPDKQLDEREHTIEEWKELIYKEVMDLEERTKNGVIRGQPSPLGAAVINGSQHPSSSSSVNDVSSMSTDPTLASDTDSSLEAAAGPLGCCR

[12] = target: Mitogen-activated protein kinase 10 (Homo sapiens) (UniProt P53779); assay: Inhibition of JNK3a1 at 3 uM relative to control; values are per cent of control
Sequence of Mitogen-activated protein kinase 10 (Homo sapiens) (P53779 whole entry): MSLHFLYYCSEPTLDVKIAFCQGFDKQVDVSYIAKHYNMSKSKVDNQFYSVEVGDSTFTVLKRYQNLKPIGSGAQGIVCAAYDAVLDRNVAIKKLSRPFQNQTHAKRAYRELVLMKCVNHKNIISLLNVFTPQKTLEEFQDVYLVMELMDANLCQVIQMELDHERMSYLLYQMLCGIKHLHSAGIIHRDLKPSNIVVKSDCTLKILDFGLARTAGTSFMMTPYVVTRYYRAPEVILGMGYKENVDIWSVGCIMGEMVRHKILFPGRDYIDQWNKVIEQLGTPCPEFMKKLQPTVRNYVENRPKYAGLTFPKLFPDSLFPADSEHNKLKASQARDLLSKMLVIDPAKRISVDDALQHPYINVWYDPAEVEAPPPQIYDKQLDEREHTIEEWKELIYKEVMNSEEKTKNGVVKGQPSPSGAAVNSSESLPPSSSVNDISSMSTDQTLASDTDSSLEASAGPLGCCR

[13] = target: Serine/threonine-protein kinase Chk2 (Homo sapiens) (UniProt O96017); assay: Inhibition of CHK2 at 3 uM relative to control; values are per cent of control
[14] = Inhibition of PKBD at 3 uM relative to control; values are per cent of control
[15] = target: Dual specificity tyrosine-phosphorylation-regulated kinase 1A (Homo sapiens) (UniProt Q13627); assay: Inhibition of DYRK1A at 3 uM relative to control; values are per cent of control
[16] = Inhibition of SAPK2a at 3 uM relative to control; values are per cent of control
[17] = target: Mitogen-activated protein kinase kinase kinase 14 (Homo sapiens) (UniProt Q99558); conditions: 3 to 6 uM
Description: Inhibition of NIK at 3 to 6 uM relative to control

[18] = target: Cytochrome P450 2D6 (Homo sapiens, UniProt P10635); assay: Inhibition of human CYP2D6 by fluorescence assay; assay type: ADME
[19] = target: Lymphokine-activated killer T-cell-originated protein kinase (Homo sapiens) (UniProt Q96KB5); conditions: 3 to 6 uM
Description: Inhibition of PBK at 3 to 6 uM relative to control

[20] = target: Serine/threonine-protein kinase haspin (Homo sapiens) (UniProt Q8TF76); conditions: 3 to 6 uM
Description: Inhibition of GSG2 at 3 to 6 uM relative to control

[21] = target: Calcium/calmodulin-dependent protein kinase type 1 (Homo sapiens) (UniProt Q14012); conditions: 3 to 6 uM
Description: Inhibition of CAMK1 at 3 to 6 uM relative to control

[22] = Solubility at pH 7.4; assay type: physicochemical; conditions: buffer
[23] = target: Cytochrome P450 2C9 (Homo sapiens, UniProt P11712); assay: Inhibition of human CYP2C9 by fluorescence assay; assay type: ADME
[24] = target: RAC-beta serine/threonine-protein kinase (Homo sapiens) (UniProt P31751); conditions: 3 to 6 uM
Description: Inhibition of PKBbeta at 3 to 6 uM relative to control

[25] = target: Tyrosine-protein kinase CSK (Homo sapiens) (UniProt P41240); conditions: 3 to 6 uM
Description: Inhibition of CSK at 3 to 6 uM relative to control

[26] = test system: Caco-2; assay: Permeability from apical to basolateral side in human Caco-2 cells; assay type: ADME, cell-based; conditions: caco-2, BLD = below limit of detection
[27] = target: Myotonin-protein kinase (Homo sapiens) (UniProt Q09013); conditions: 3 to 6 uM
Description: Inhibition of DMPK at 3 to 6 uM relative to control

[28] = target: Leucine-rich repeat serine/threonine-protein kinase 2 (Homo sapiens) (UniProt Q5S007); conditions: 3 to 6 uM
Description: Inhibition of LRRK2 at 3 to 6 uM relative to control

[29] = target: Protein kinase C alpha type (Homo sapiens) (UniProt P17252); conditions: 3 to 6 uM
Description: Inhibition of PKCalpha at 3 to 6 uM relative to control

[30] = target: Dual specificity protein kinase CLK1 (Homo sapiens) (UniProt P49759); conditions: 3 to 6 uM
Description: Inhibition of CLK1 at 3 to 6 uM relative to control

[31] = target: Mitogen-activated protein kinase 1 (Homo sapiens) (UniProt P28482); conditions: 3 to 6 uM
Sequence of Mitogen-activated protein kinase 1 (Homo sapiens) (P28482 whole entry): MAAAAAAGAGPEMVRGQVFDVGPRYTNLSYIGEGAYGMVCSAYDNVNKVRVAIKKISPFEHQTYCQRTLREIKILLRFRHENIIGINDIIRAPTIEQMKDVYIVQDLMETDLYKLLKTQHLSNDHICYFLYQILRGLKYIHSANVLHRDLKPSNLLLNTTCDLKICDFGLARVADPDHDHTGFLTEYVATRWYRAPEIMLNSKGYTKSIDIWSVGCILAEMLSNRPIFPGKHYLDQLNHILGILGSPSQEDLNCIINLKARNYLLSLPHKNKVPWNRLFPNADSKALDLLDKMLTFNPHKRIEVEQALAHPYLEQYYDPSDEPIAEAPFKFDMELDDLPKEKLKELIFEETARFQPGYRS
Description: Inhibition of MAPK2 at 3 to 6 uM relative to control

[32] = target: Mitogen-activated protein kinase 8 (Homo sapiens) (UniProt P45983); conditions: 3 to 6 uM
Description: Inhibition of JNK1a1 at 3 to 6 uM relative to control

[33] = target: Proto-oncogene tyrosine-protein kinase Src (Homo sapiens) (UniProt P12931); conditions: 3 to 6 uM
Description: Inhibition of SRC at 3 to 6 uM relative to control

[34] = target: Mitogen-activated protein kinase 10 (Homo sapiens) (UniProt P53779); conditions: 3 to 6 uM
Description: Inhibition of JNK3a1 at 3 to 6 uM relative to control

[35] = target: Cyclin-dependent kinase 2 (Homo sapiens) (UniProt P24941); conditions: 3 to 6 uM
Description: Inhibition of CDK2 at 3 to 6 uM relative to control

[36] = target: Caspase-1 (Homo sapiens) (UniProt P29466); conditions: 3 to 6 uM
Description: Inhibition of ICE at 3 to 6 uM relative to control

[37] = target: Serine/threonine-protein kinase Chk1 (Homo sapiens) (UniProt O14757); conditions: 3 to 6 uM
Description: Inhibition of CHK1 at 3 to 6 uM relative to control

[38] = target: Vascular endothelial growth factor receptor 1 (Homo sapiens, UniProt P17948); assay: Inhibition of VEGFR1
Sequence of Vascular endothelial growth factor receptor 1 (P17948 whole entry): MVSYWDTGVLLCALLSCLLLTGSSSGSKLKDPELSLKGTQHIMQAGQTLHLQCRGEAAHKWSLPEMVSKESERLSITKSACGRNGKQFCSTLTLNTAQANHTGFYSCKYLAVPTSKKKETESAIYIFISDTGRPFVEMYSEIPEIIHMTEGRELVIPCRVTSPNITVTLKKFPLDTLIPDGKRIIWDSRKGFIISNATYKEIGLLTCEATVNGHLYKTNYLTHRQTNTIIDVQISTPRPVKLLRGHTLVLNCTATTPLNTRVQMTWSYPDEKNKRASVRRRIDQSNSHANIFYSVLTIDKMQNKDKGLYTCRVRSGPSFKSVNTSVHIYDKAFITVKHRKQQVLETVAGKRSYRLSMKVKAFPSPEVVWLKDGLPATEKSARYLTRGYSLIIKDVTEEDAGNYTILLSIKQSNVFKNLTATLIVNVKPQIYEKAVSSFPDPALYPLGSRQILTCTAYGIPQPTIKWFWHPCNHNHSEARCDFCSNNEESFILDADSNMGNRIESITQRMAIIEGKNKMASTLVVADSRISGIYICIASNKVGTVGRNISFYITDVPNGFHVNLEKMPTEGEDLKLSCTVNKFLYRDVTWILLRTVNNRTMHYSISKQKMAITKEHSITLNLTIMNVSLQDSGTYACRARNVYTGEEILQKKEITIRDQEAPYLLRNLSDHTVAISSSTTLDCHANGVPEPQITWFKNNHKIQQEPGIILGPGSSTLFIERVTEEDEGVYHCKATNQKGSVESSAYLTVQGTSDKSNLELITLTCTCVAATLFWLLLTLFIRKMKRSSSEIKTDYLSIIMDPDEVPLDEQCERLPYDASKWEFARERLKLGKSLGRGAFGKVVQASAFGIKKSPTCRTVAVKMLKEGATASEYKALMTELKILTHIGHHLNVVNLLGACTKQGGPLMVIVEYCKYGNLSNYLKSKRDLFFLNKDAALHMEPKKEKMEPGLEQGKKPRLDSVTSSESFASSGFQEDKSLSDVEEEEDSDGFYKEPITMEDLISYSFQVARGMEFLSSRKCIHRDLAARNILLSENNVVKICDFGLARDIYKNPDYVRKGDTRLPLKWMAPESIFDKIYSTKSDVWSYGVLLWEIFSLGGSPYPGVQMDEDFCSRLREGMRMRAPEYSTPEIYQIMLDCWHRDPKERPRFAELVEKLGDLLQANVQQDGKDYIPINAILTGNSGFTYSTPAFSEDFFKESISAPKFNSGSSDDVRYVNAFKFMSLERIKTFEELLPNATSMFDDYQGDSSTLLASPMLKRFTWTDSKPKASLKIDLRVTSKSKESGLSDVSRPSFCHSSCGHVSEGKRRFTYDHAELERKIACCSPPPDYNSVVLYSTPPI

[39] = target: Dual specificity mitogen-activated protein kinase kinase 1 (Homo sapiens) (UniProt Q02750); conditions: 3 to 6 uM
Sequence of Dual specificity mitogen-activated protein kinase kinase 1 (Homo sapiens) (Q02750 whole entry): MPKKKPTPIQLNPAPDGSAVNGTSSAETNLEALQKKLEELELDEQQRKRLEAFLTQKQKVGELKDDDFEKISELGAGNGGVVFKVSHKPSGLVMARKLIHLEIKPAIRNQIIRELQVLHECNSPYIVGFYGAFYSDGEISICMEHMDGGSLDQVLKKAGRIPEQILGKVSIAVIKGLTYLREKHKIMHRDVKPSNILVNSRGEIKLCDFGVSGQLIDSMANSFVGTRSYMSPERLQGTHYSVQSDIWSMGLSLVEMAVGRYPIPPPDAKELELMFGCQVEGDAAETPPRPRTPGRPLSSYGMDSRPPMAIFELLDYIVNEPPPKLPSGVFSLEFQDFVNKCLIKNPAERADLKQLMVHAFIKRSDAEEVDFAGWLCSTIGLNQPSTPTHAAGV
Description: Inhibition of MKK1 at 3 to 6 uM relative to control

[40] = target: MAP kinase-interacting serine/threonine-protein kinase 2 (Homo sapiens) (UniProt Q9HBH9); conditions: 3 to 6 uM
Description: Inhibition of MNK2 at 3 to 6 uM relative to control

[41] = target: Ribosomal protein S6 kinase alpha-5 (Homo sapiens) (UniProt O75582); conditions: 3 to 6 uM
Sequence of Ribosomal protein S6 kinase alpha-5 (Homo sapiens) (O75582 whole entry, looked up): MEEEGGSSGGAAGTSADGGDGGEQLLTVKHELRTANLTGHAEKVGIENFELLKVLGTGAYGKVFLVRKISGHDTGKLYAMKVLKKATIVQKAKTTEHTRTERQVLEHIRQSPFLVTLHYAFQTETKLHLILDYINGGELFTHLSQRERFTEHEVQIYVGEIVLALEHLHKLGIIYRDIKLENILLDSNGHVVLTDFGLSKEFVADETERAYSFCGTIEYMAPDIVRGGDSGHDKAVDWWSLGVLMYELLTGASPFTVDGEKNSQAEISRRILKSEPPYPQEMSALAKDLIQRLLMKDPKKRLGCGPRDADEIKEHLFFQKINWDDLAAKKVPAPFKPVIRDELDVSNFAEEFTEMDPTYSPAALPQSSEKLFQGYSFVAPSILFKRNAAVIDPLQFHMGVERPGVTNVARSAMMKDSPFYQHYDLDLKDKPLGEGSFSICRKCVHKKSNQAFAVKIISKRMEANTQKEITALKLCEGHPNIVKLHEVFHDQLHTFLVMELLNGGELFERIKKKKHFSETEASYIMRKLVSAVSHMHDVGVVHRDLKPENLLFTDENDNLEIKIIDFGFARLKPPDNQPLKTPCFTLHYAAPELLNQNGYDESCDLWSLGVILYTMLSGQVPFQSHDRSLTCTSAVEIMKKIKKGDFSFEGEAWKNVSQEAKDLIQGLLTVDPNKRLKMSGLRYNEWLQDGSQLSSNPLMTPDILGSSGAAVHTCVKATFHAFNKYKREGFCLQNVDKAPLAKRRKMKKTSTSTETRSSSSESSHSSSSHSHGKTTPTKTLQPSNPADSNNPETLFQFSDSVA
Description: Inhibition of MSK1 at 3 to 6 uM relative to control

residual activity [1]: 50% | residual activity [2]: > 50% | residual activity [3]: > 50% | residual activity [4]: > 50% | IC50 [5]: 0.006 µM | residual activity [6]: > 50% | residual activity [7]: > 50% | residual activity [8]: > 50% | residual activity [9]: > 50% | residual activity [10]: > 50% | residual activity [11]: > 50% | residual activity [12]: > 50% | residual activity [13]: > 50% | residual activity [14]: > 50% | residual activity [15]: > 50% | residual activity [16]: > 50%
Structure (SMILES): NC(=O)c1ccc(NC(=O)NCc2cccc(C(=O)Nc3ccc4c(c3)CNCC4)c2)cc1

residual activity [17]: > 50% | IC50 [18]: > 30 µM | residual activity [20]: > 50% | residual activity [21]: > 50% | solubility [22]: 49 µg/mL (≈ 110 µM) | IC50 [23]: > 30 µM | residual activity [24]: > 50% | residual activity [25]: > 50% | permeability [26]: BLD | residual activity [27]: > 50% | residual activity [28]: > 50% | residual activity [29]: > 50% | residual activity [30]: > 50% | residual activity [31]: > 50% | residual activity [32]: > 50% | residual activity [33]: > 50% | residual activity [34]: > 50% | residual activity [35]: > 50% | residual activity [36]: > 50% | residual activity [37]: > 50% | IC50 [38]: > 10 µM | residual activity [39]: > 50% | residual activity [40]: > 50% | residual activity [41]: > 50%
Structure (SMILES): COc1ccc(C(=O)NCc2cccc(C(=O)Nc3ccc4c(c3)CNCC4)c2)cc1OC
residual activity [19]: > 50%
